# Laboratory results taken from ChEMBL document CHEMBL6127107, “Oleanolic acid derivatives against drug-resistant bacteria and fungi by multi-targets to avoid drug resistance” (Eur J Med Chem, 2024).
# Activity calls are given as the source filed them. The rule behind the calls is not given here.
# Tests used:
# Staphylococcus aureus [1] = experiment: Antibacterial activity against methicillin-resistant Staphylococcus aureus infected in cyclophosphamide-injected Kunming mouse model of skin wound infection assessed as wound repair by measuring reduction in wound area at 4 mg/kg measured for 7 days by photographic analysis; assay type: functional, organism-based; conditions: time 7.0 day
# Enterococcus faecalis = experiment: Antimicrobial activity against vancomycin resistant Enterococcus faecalis ATCC 51299; assay type: functional
# Staphylococcus aureus [2] = experiment: Antibacterial activity against methicillin-resistant Staphylococcus aureus infected in cyclophosphamide-injected Kunming mouse model of skin wound infection assessed as reduction in bacterial load in skin at 4 mg/kg measured after 7 days; assay type: functional; conditions: time 7 day
# [3] = Hemolytic activity against Mianyang red blood cells (unknown origin); assay type: toxicity, cell-based, RBC
# Staphylococcus aureus [4] = experiment: Drug resistance, ratio of MIC for methicillin-resistant Staphylococcus aureus measured after 20 days of continuous passage to MIC for methicillin-resistant Staphylococcus aureus measured after first exposure; assay type: functional
# Candida albicans = experiment: Antimicrobial activity against fluconazole-resistant Candida albicans; assay type: functional
# [5] = Selectivity index, ratio of HC50 for hemolytic activity against Mianyang red blood cells (unknown origin) to MIC for antimicrobial activity against methicillin resistant Staphylococcus aureus 003; assay type: toxicity, cell-based, RBC; conditions: read-out: Selectivity Index
# Staphylococcus aureus [6] = experiment: Antimicrobial activity against methicillin-resistant Staphylococcus aureus 011; assay type: functional
# Pseudomonas aeruginosa = experiment: Antimicrobial activity against Pseudomonas aeruginosa; assay type: functional
# Staphylococcus aureus [7] = experiment: Antimicrobial activity against Staphylococcus aureus 29; assay type: functional
# Staphylococcus aureus [8] = experiment: Antimicrobial activity against Staphylococcus aureus 31; assay type: functional
# Staphylococcus aureus [9] = experiment: Antimicrobial activity against methicillin-resistant Staphylococcus aureus 003; assay type: functional
# Escherichia coli = experiment: Antimicrobial activity against Escherichia coli; assay type: functional
# Staphylococcus aureus [10] = experiment: Antimicrobial activity against Staphylococcus aureus 10; assay type: functional
SMILES,Activity (Staphylococcus aureus [1]),MIC (Enterococcus faecalis) [µg/mL],Activity (Staphylococcus aureus [2]) [log10CFU/mg],HC50 [3] [µg/mL],Ratio (Staphylococcus aureus [4]),MIC (Candida albicans) [µg/mL],selectivity ratio [5],MIC (Staphylococcus aureus [6]) [µg/mL],MIC (Pseudomonas aeruginosa) [µg/mL],MIC (Staphylococcus aureus [7]) [µg/mL],MIC (Staphylococcus aureus [8]) [µg/mL],MIC (Staphylococcus aureus [9]) [µg/mL],MIC (Escherichia coli) [µg/mL],MIC (Staphylococcus aureus [10]) [µg/mL]
CN[C@H](CC(C)C)C(=O)N[C@H]1C(=O)N[C@@H](CC(N)=O)C(=O)N[C@H]2C(=O)N[C@H]3C(=O)N[C@H](C(=O)N[C@H](C(=O)O)c4cc(O)cc(O)c4-c4cc3ccc4O)[C@H](O)c3ccc(c(Cl)c3)Oc3cc2cc(c3O[C@@H]2O[C@H](CO)[C@@H](O)[C@H](O)[C@H]2O[C@H]2C[C@](C)(N)[C@H](O)[C@H](C)O2)Oc2ccc(cc2Cl)[C@H]1O [VANCOMYCIN],Active,2,0.9,> 256,–,–,–,–,–,–,–,–,–,–
CCn1cc(C(=O)O)c(=O)c2cc(F)c(N3CCNCC3)cc21 [NORFLOXACIN],–,–,–,–,32,–,–,–,–,–,–,–,–,–
CC1(C)CC[C@]2(C(=O)O)CC[C@]3(C)C(=CC[C@@H]4[C@@]5(C)CC[C@H](OC(=O)CCC(=O)O)C(C)(C)[C@@H]5CC[C@]43C)[C@@H]2C1 [OLEANOLIC ACID 3-O-SUCCINATE],–,32,–,> 1020,–,32,> 64,16,> 64,8,32,16,> 64,16
CC1(C)CC[C@]2(C(=O)O)CC[C@]3(C)C(=CC[C@@H]4[C@@]5(C)CC[C@H](OCC(O)CCCCN)C(C)(C)[C@@H]5CC[C@]43C)[C@@H]2C1 (stereo partly specified),–,8,–,26.1,–,16,6.54,4,> 64,4,8,4,> 64,4
CC(=O)O[C@H]1CC[C@]2(C)[C@H]3CC=C4[C@@H]5CC(C)(C)CC[C@]5(C(=O)NCCCN)CC[C@@]4(C)[C@]3(C)CC[C@H]2C1(C)C,–,4,–,78.5,–,2,39.2,2,> 64,4,8,2,> 64,4
CC(=O)O[C@H]1CC[C@]2(C)[C@H]3CC=C4[C@@H]5CC(C)(C)CC[C@]5(C(=O)NCCCCNC(=N)N)CC[C@@]4(C)[C@]3(C)CC[C@H]2C1(C)C,–,2,–,284,–,2,142,2,> 64,2,4,2,> 64,2
CC1(C)CC[C@]2(C(=O)O)CC[C@]3(C)C(=CC[C@@H]4[C@@]5(C)CC[C@H](OCC(O)CCCCCCCCNC(=N)N)C(C)(C)[C@@H]5CC[C@]43C)[C@@H]2C1 (stereo partly specified),–,8,–,577,–,16,72.1,4,> 64,8,16,8,> 64,8
CC1(C)CC[C@]2(C(=O)O)CC[C@]3(C)C(=CC[C@@H]4[C@@]5(C)CC[C@H](OC(=O)CCCC(=O)O)C(C)(C)[C@@H]5CC[C@]43C)[C@@H]2C1,–,32,–,> 1020,–,32,> 32,32,> 64,32,64,32,> 64,32
